From patent US20240067693A1, “POLYPEPTIDES AND USES THEREOF” (MEDIMMUNE LIMITED, priority 2020, published 2024)
Numbered stars: 1 amine (or outer) side, 2 acyl side, 3 side chain; on linkers, the order of the positions; unused ones are H or OH. Bridge positions count the residues as written; N and C are the ends. Square brackets hold non-standard residues; d marks the D form. Side chains are listed from the residue outwards. Peptide text beside a SMILES is read from it. * marks the point of attachment. C20 diacid = O=C(O)CCCCCCCCCCCCCCCCCCC(=O)*; C18 diacid = O=C(O)CCCCCCCCCCCCCCCCC(=O)*; γGlu = O=C(O)[C@H](CCC(=O)[*:2])N[*:1]; αMeF = C[C@](N)(Cc1ccccc1)C(=O)O; Dab = NCC[C@H](N)C(=O)O; AEEA = NCCOCCOCC(=O)O; Aib = CC(C)(N)C(=O)O

Legend:
[1] = molecular target: T1, rat amylin receptor (calcitonin receptor co-expressed with receptor activity modifying protein, RAMP3) (Rat AMYR3) (Rattus norvegicus, UniProt P32214+Q9JJ73); assay: cAMP production in HEK cells with stable recombinant expression of rat amylin receptor (Rat AMYR3); format: cell-based; conditions: assay buffer with 0.1% BSA
T1 construct: expressed in transfected cells
T1 sequence (P32214 25-516): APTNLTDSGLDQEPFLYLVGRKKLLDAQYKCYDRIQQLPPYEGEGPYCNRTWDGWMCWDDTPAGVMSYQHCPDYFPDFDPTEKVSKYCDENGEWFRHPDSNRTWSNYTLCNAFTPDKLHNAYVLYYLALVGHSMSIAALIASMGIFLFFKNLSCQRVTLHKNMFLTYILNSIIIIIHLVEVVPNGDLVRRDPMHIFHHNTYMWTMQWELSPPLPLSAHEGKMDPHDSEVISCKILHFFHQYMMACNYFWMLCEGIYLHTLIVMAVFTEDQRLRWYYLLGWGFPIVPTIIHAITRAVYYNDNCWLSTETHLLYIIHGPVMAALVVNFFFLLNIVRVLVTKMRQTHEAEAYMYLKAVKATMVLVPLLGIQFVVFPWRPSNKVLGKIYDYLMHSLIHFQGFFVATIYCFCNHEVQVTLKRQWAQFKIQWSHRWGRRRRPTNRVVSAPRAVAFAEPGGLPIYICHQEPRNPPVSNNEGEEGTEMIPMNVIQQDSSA
T1 sequence (Q9JJ73 23-147 partner): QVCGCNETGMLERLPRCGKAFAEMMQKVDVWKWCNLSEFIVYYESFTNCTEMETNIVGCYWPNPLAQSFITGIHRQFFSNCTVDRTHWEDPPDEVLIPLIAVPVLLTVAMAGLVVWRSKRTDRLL
How it was run: (§1)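 Receptor-expressing cells (human receptors in 1321N1, rat receptors in HEK) incubated 30 min at room temperature with peptide in HBSS/HEPES pH 7.4, 0.1% BSA, 0.5 mM IBMX. cAMP read by HTRF; EC50 from 4-parameter fit as % of maximal amylin or calcitonin response.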

[2] = Thioflavin T fibrillation assay; format: physicochemical; conditions: for Time taken to detect increase in fluorescence intensity: ThT fibrillation assay, peptide 1 mg/mL in 25 mM sodium acetate buffer pH 4.0, 6 days at 37 °C with shaking, >144 h = no increase
How it was run: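 Peptides at 1 mg/mL in 25 mM sodium acetate pH 4.0 with ThT (from 0.25 mM stock), incubated 6 days at 37 °C with intermittent orbital shaking at 500–750 rpm. Fluorescence (ex 444/em 480 nm) read every 30 min; value is average time to a rise in baseline-corrected signal.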

[3] = molecular target: T2, human calcitonin receptor (hCTR) (Homo sapiens, UniProt P30988); assay: cAMP production in 1321N1 cells with stable recombinant expression of human calcitonin receptor (hCTR); format: cell-based; conditions: cAMP, 1321N1 cells, assay buffer with 0.1% BSA; read-out: EC50 (pM) hCTR
T2 construct: expressed in transfected cells
T2 sequence (P30988 25-474): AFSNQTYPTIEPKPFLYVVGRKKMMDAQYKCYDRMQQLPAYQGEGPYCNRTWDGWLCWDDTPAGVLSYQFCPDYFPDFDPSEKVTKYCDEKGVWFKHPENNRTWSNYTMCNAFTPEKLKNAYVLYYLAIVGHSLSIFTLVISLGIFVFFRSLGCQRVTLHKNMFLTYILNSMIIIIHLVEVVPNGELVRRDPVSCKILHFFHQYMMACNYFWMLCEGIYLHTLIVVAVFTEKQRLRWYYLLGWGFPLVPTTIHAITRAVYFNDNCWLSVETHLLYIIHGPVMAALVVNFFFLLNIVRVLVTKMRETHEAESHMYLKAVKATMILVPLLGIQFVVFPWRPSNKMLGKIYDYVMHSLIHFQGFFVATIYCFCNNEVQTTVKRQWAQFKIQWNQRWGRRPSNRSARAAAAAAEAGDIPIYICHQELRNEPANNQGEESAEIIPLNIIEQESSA
How it was run: as §1

Row | EC50 [1] [pM] | Time taken to detect increase in fluorescence intensity [2] [h] | EC50 [3] [pM] | fibril-forming tendency ([2]; ThT assay, 1 mg/mL, pH 4.0, 37 °C, compared to pramlintide) | SMILES
1 | 5 | >144 | 1220 | – | CC[C@H](C)[C@H](NC(=O)[C@@H]1CCCN1C(=O)CNC(=O)[C@](C)(Cc1ccccc1)NC(=O)[C@H](CC(N)=O)NC(=O)[C@H](CC(N)=O)NC(=O)[C@H](CO)NC(=O)[C@H](CO)NC(=O)[C@H](Cc1c[nH]cn1)NC(=O)[C@H](CCCNC(=N)N)NC(=O)[C@H](CC(C)C)NC(=O)[C@H](Cc1ccccc1)NC(=O)[C@H](CCC(=O)O)NC(=O)[C@H](C)NC(=O)[C@H](CC(C)C)NC(=O)[C@H](CCCNC(=N)N)NC(=O)[C@H](CCC(N)=O)NC(=O)[C@@H](NC(=O)[C@H](C)NC(=O)[C@@H]1CSSC[C@H](NC(=O)[C@H](CCCCN)NC(=O)[C@@H](N)CCCCNC(=O)CC[C@H](NC(=O)CCCCCCCCCCCCCCCCC(=O)O)C(=O)O)C(=O)N[C@@H](CC(N)=O)C(=O)N[C@@H]([C@@H](C)O)C(=O)N[C@@H](C)C(=O)N[C@@H]([C@@H](C)O)C(=O)N1)[C@@H](C)O)C(=O)N[C@@H](CC(C)C)C(=O)N1CCC[C@H]1C(=O)N1CCC[C@H]1C(=O)N[C@H](C(=O)N[C@@H](CC(N)=O)C(=O)N[C@H](C(=O)NCC(=O)N[C@@H](CO)C(=O)N[C@@H](CC(N)=O)C(=O)N[C@H](C(=O)N[C@@H](Cc1ccc(O)cc1)C(N)=O)[C@@H](C)O)C(C)C)[C@@H](C)O [Peptide 12, K(γE-C18diacid)K[CNTATC]ATQRLAEFLRHSSNN(αMePhe)GPILPPTNVGSNTY-amide] (H-K([γGlu-C18 diacid])KCNTATCATQRLAEFLRHSSNN[αMeF]GPILPPTNVGSNTY-NH2; disulfide 3-8; N-terminus assumed)
2 | 16.5 | >144 | 4690 | – | CC[C@H](C)[C@H](NC(=O)[C@@H]1CCCN1C(=O)CNC(=O)[C@](C)(Cc1ccccc1)NC(=O)[C@H](CC(N)=O)NC(=O)[C@H](CC(N)=O)NC(=O)[C@H](CO)NC(=O)[C@H](CO)NC(=O)[C@H](Cc1c[nH]cn1)NC(=O)[C@H](CCCNC(=N)N)NC(=O)[C@H](CC(C)C)NC(=O)[C@H](Cc1ccccc1)NC(=O)[C@H](CC(N)=O)NC(=O)[C@H](C)NC(=O)[C@H](CC(C)C)NC(=O)[C@H](CCCNC(=N)N)NC(=O)[C@H](CCC(N)=O)NC(=O)[C@@H](NC(=O)[C@H](C)NC(=O)[C@@H]1CSSC[C@H](NC(=O)[C@@H](N)CCCCNC(=O)CC[C@H](NC(=O)CC[C@H](NC(=O)CCCCCCCCCCCCCCCCC(=O)O)C(=O)O)C(=O)O)C(=O)N[C@@H](CC(N)=O)C(=O)N[C@@H]([C@@H](C)O)C(=O)N[C@@H](C)C(=O)N[C@@H]([C@@H](C)O)C(=O)N1)[C@@H](C)O)C(=O)N[C@@H](CC(C)C)C(=O)N1CCC[C@H]1C(=O)N1CCC[C@H]1C(=O)N[C@H](C(=O)N[C@@H](CCC(=O)O)C(=O)N[C@H](C(=O)NCC(=O)N[C@@H](CO)C(=O)N[C@@H](CC(N)=O)C(=O)N[C@H](C(=O)N[C@@H](Cc1ccc(O)cc1)C(N)=O)[C@@H](C)O)C(C)C)[C@@H](C)O [Peptide 18, K(γE-γE-C18diacid)[CNTATC]ATQRLANFLRHSSNN(αMePhe)GPILPPTEVGSNTY-amide] (H-K([γGlu-γGlu-C18 diacid])CNTATCATQRLANFLRHSSNN[αMeF]GPILPPTEVGSNTY-NH2; disulfide 2-7; N-terminus assumed)

Continued, molecule first:

Row | SMILES | EC50 [1] [pM] | Time taken to detect increase in fluorescence intensity [2] [h] | EC50 [3] [pM] | fibril-forming tendency ([2]; ThT assay, 1 mg/mL, pH 4.0, 37 °C, compared to pramlintide)
3 | CC[C@H](C)[C@H](NC(=O)[C@H](C)NC(=O)[C@@H]1CCCN1C(=O)[C@H](Cc1ccccc1)NC(=O)[C@H](CC(N)=O)NC(=O)[C@H](CCN)NC(=O)[C@H](CO)NC(=O)[C@H](CO)NC(=O)[C@H](Cc1c[nH]cn1)NC(=O)[C@@H](NC(=O)[C@H](CC(C)C)NC(=O)[C@H](Cc1ccccc1)NC(=O)[C@H](CC(N)=O)NC(=O)[C@H](C)NC(=O)[C@H](CC(C)C)NC(=O)[C@H](CCCNC(=N)N)NC(=O)[C@H](CCC(N)=O)NC(=O)[C@@H](NC(=O)[C@H](C)NC(=O)[C@@H]1CSSC[C@H](NC(=O)[C@@H](N)CCCCNC(=O)CC[C@H](NC(=O)CC[C@H](NC(=O)CCCCCCCCCCCCCCCCC(=O)O)C(=O)O)C(=O)O)C(=O)N[C@@H](CC(N)=O)C(=O)N[C@@H]([C@@H](C)O)C(=O)N[C@@H](C)C(=O)N[C@@H]([C@@H](C)O)C(=O)N1)[C@@H](C)O)C(C)C)C(=O)N[C@@H](CC(C)C)C(=O)N[C@@H](CO)C(=O)N1CCC[C@H]1C(=O)N[C@H](C(=O)N[C@@H](CC(N)=O)C(=O)N[C@H](C(=O)NCC(=O)N[C@@H](CO)C(=O)N[C@@H](CC(N)=O)C(=O)N[C@H](C(=O)N[C@@H](Cc1ccc(O)cc1)C(N)=O)[C@@H](C)O)C(C)C)[C@@H](C)O [Peptide 8, K(γE-γE-C18diacid)[CNTATC]ATQRLANFLVHSS(Dab)NFPAILSPTNVGSNTY-amide] (H-K([γGlu-γGlu-C18 diacid])CNTATCATQRLANFLVHSS[Dab]NFPAILSPTNVGSNTY-NH2; disulfide 2-7) | 25.6 | 7 | 20200 | –
4 | CC[C@H](C)[C@H](NC(=O)[C@@H]1CCCN1C(=O)CNC(=O)[C@H](Cc1ccccc1)NC(=O)[C@H](CC(N)=O)NC(=O)[C@H](CC(N)=O)NC(=O)[C@H](CO)NC(=O)[C@H](CO)NC(=O)[C@H](Cc1c[nH]cn1)NC(=O)[C@@H](NC(=O)[C@H](CC(C)C)NC(=O)[C@H](Cc1ccccc1)NC(=O)[C@H](CC(N)=O)NC(=O)[C@H](C)NC(=O)[C@H](CC(C)C)NC(=O)[C@H](CCCNC(=N)N)NC(=O)[C@H](CCC(N)=O)NC(=O)[C@@H](NC(=O)[C@H](C)NC(=O)[C@@H]1CSSC[C@H](NC(=O)[C@H](CCCCN)NC(=O)COCCOCCNC(=O)COCCOCCNC(=O)CC[C@H](NC(=O)CCCCCCCCCCCCCCCCCCC(=O)O)C(=O)O)C(=O)N[C@@H](CC(N)=O)C(=O)N[C@@H]([C@@H](C)O)C(=O)N[C@@H](C)C(=O)N[C@@H]([C@@H](C)O)C(=O)N1)[C@@H](C)O)C(C)C)C(=O)N[C@@H](CC(C)C)C(=O)N1CCC[C@H]1C(=O)N1CCC[C@H]1C(=O)N[C@H](C(=O)N[C@@H](CC(N)=O)C(=O)N[C@H](C(=O)NCC(=O)N[C@@H](CO)C(=O)N[C@@H](CC(N)=O)C(=O)N[C@H](C(=O)N[C@@H](Cc1ccc(O)cc1)C(N)=O)[C@@H](C)O)C(C)C)[C@@H](C)O [Peptide 113] ({C20 diacid-γGlu-AEEA-AEEA}-KCNTATCATQRLANFLVHSSNNFGPILPPTNVGSNTY-NH2; disulfide 2-7) | 32.6 | <5 | 18500 | increases the fibril-forming tendency
5 | CC[C@H](C)[C@H](NC(=O)[C@@H]1CCCN1C(=O)CNC(=O)[C@H](Cc1ccccc1)NC(=O)[C@H](CC(N)=O)NC(=O)[C@H](CC(N)=O)NC(=O)[C@H](CO)NC(=O)[C@H](CO)NC(=O)[C@H](Cc1c[nH]cn1)NC(=O)C(C)(C)NC(=O)[C@H](CC(C)C)NC(=O)[C@H](Cc1ccccc1)NC(=O)[C@H](CC(N)=O)NC(=O)[C@H](C)NC(=O)[C@H](CC(C)C)NC(=O)[C@H](CCCNC(=N)N)NC(=O)[C@H](CCC(N)=O)NC(=O)[C@@H](NC(=O)[C@H](C)NC(=O)[C@@H]1CSSC[C@H](NC(=O)[C@H](CCCCN)NC(=O)[C@@H](N)CCCCNC(=O)CC[C@H](NC(=O)CCCCCCCCCCCCCCCCC(=O)O)C(=O)O)C(=O)N[C@@H](CC(N)=O)C(=O)N[C@@H]([C@@H](C)O)C(=O)N[C@@H](C)C(=O)N[C@@H]([C@@H](C)O)C(=O)N1)[C@@H](C)O)C(=O)N[C@@H](CC(C)C)C(=O)N1CCC[C@H]1C(=O)N1CCC[C@H]1C(=O)N[C@H](C(=O)N[C@@H](CC(N)=O)C(=O)N[C@H](C(=O)NCC(=O)N[C@@H](CO)C(=O)N[C@@H](CC(N)=O)C(=O)N[C@H](C(=O)N[C@@H](Cc1ccc(O)cc1)C(N)=O)[C@@H](C)O)C(C)C)[C@@H](C)O [Peptide 129] (H-K([γGlu-C18 diacid])KCNTATCATQRLANFL[Aib]HSSNNFGPILPPTNVGSNTY-NH2; disulfide 3-8; N-terminus assumed) | 11.2 | >144 | 5750 | –
